{"source": "patent US10799501B2", "about": "“Combination of an inhibitor of PARP with an inhibitor of GSK-3 or DOT1L” (King's College London, priority 2015, dated 2020)", "system": "PML-RARα transformed cells", "experiment": "In vitro drug treatment of primary murine hematopoietic cells transformed by PML-RARα (RTTA)", "assay_type": "cell-based, mouse", "procedure": "Transduction using concentrated viral supernatant expressing the oncogene of interest was carried out by centrifugation (spinoculation) at 800 g at 32° C. for 2 hours in the presence of 5 μg ml^-1 polybrene (Sigma-Aldrich). Cells were subsequently plated in 1% methylcellulose medium ([…]; Stem Cell Technologies) containing 20 ngml^-1 SCF, 10 ngml^-1 IL-3, 10 ngml^-1 IL-6 and 10 ngml^-1 granulocyte macrophage colony-stimulating factor (GM-CSF) and appropriate selection antibiotic. Colonies were counted after 7 days of culture and replated every 6-7 days at 5×103-1.5×10^4 cell density. Re-plating was performed weekly to generate primary cell lines for further analysis. After the third or fourth round of plating, cells were cultured in R20/20 medium (RPMI 1640, 20% FCS, 20% WEHI-conditioned medium, 2 mM L-glutamine, 100 U/ml penicillin, and 100 μg/ml streptomycin) supplemented with 20 ngml^-1 stem cell factor (SCF), 10 ngml^-1 interleukin (IL)-3, and 10 ngml^-1 IL-6 to establish cell lines. All recombinant murine cytokines were from PeprotechEC. […] Colonies were scored 6-7 days after plating. For other in vitro studies, mouse leukemic cells and primary AML cell lines were subjected to continuously Olaparib (1 μM) or LiCl (8 mM) treatment in liquid culture for whole duration as indicated in the figures or figure legends. For human leukemic cell lines, experiments were performed as described above with 5 μM Olaparib. For each assay 1×10^5 cells were collected, washed in PBS and re-suspended in Annexin V binding solution (25 mM Hepes, 140 mM KCl, 2.5 mM CaCl2 pH 7.2). After centrifugation at 500 g for five minutes the cells were incubated with the Annexin V Binding solution containing 0.25 ug/ml mouse anti Annexin V-FITC antibody (Biolegend 640906) and 1 ug/ml propidium iodide in the dark for 30 minutes at 4° C. Samples were then washed in PBS analysed at the FACS LSRII (BD Biosciences Pharmingen) with FACS Diva. Cells were cytospun onto a glass slide at 400 g for 5 minutes and then fixed for 10 minutes with 2% formaldehyde/0.2% glutaraldehyde (Sigma Aldrich). Cells were then washed with PBS, and then incubated at 37° C. for at least 2 hours with a staining solution (30 mM Citric Acid/Phosphate buffer, 5 mM K4Fe(CN)6, 5 mM K3Fe(CN)6, 150 mM NaCl, 2 mM MgCl2, 1 mg/ml X-Gal) (All reagents from Sigma-Aldrich)62. Cells were counted in at least 5 fields for each slide, for a total of over 100 cells. The percentage of senescent cells was calculated by the percentage of the number of blue cell in the field. Cells were cytospun onto a glass slide at 400 g for 5 minutes and then fixed for 30 minutes in 4% PFA and permeabilized and blocked in 0.8% Tx-100, 10% FBS/1% BSA (Sigma-Aldrich) in PBS for 15 min at room temperature. Mouse anti mouse γH2AX ([…]) (Upstate clone JBW301#05-636) and rabbit anti mouse RAD51 (Santa Cruz Biotecnology […]# sc-8349) were diluted in TBS containing 10% FBS/1% BSA and incubated overnight at 4C. […] Slides were then washed five times at 10 min each with PBS. Slides were briefly washed in water and air-dried prior to mounting with Mowiol-DABCO and a coverslip. Cells were counted in at least 5 fields for each slide, for a total of over 100 cells per condition. 1×10^5 cells were cytospun for 5 min at 300 g onto glass slides. Slides were then stained with May-Grunwald solution (Sigma-Aldrich) for 3 min at room temperature. After washing in water, they were incubated for 20 min in Giemsa solution (Sigma-Aldrich) (1:20 in water). Slides were washed again in water before being mounted with Mowiol. Cells were counted in at least 5 fields for each slide, for a total of over 100 cells per condition. NBT reduction assay were performed to determine myeloid differentiation. 0.1% of NBT (final concentration) was added to the liquid culture or semi-solid methocult and incubated at 37° C. CO2 incubator for 3 hrs and 12 hrs, respectively. […]", "data": [{"molecule": "O=C(c1cc(Cc2n[nH]c(=O)c3ccccc23)ccc1F)N1CCN(C(=O)C2CC2)CC1", "note": "[Olaparib, 4-[(3-[(4-cyclopropylcarbonyl)piperazin-4-yl]carbonyl)-4-fluorophenyl]methyl(2H)-phthalazin-1-one]", "values": [{"measurement": "suppression of colony forming ability", "setting": "1 uM Olaparib, methylcellulose 7 days, p<0.001", "result": "about 90%"}, {"measurement": "apoptosis (Annexin V/PI)", "setting": "PARPi 24 hrs and 48 hrs", "result": "induced apoptosis"}, {"measurement": "senescence (β-galactosidase staining)", "setting": "PARPi 24 hrs and 48 hrs", "result": "underwent significant senescence"}, {"measurement": "Rad51 recruitment to DNA damage sites (RAD51 foci)", "setting": "PARPi treatment for 6 hours", "result": "no significant Rad51 recruitment"}, {"measurement": "percentage of differentiation (morphology and NBT reduction)", "setting": "time course PARPi treatment", "result": "significantly increased the percentage of differentiation"}, {"measurement": "cells with γH2AX and Rad51 foci ratio greater than 2", "setting": "upon PARPi treatment", "result": "around 80%"}]}]}
